Data from patent US9271987B2, “Methods and compositions for treating Alzheimer's disease” (Cold Spring Harbor Laboratory, priority 2011, dated 2016).
Entries after “also recorded” stand apart in the source; their conditions may differ.

What was measured:
[1] = tested on: Aβ42-expressing flies (elav-Gal4/Y; UAS-Aβ42/+); experiment: Pavlovian olfactory associative immediate memory in Aβ42-expressing flies after drug feeding
Experimental: Flies were raised and maintained at room temperature (22-24° C.).

[2] = tested on: Tg(APPswe.PSEN1dE9) double transgenic mice; experiment: Morris water maze in AD-model double transgenic mice; assay type: in vivo, mouse; details: for Rescue of memory loss in Morris water maze: 8-month-old mice, lavage once daily from 9 days before training until end of experiments (18 days)
[3] = biological target: T1, human EGFR (Homo sapiens, UniProt P00533); experiment: p-EGFR level in COS-7 cells transfected with human EGFR wt (Western blot); assay type: cell-based; details: 15 min; for Level of p-EGFR or activated EGFR after Aβ42 application: 25 μg/ml Aβ42 preparation
T1 construct: expressed in transfected cells; host or cells: COS-7 (monkey kidney), Lipofectamine 2000, plasmid from Dr. Parsons
Experimental: COS-7 cells were transfected with human EGFR^wt plasmid for 48 h, then incubated with 25 μg/ml oligomeric Aβ42 preparation for 15 min. Human EGF (0.5 μg/ml) for positive control. N=3.
COS-7 cells were cultured in normal Dulbecco's Modified Eagle Medium (D-MEM) containing 10% fetal bovine serum (Invitrogen) at 37° C. in 5% CO2. […] Transfection as performed following the Lipofectamine 2000 manuals (Invitrogen). After 48 h, cells were washed with fresh medium once and incubated with 10 or 25 μg/ml Aβ42 oligomers for 15 min at 37° C. in 5% CO2. 0.5 μg/ml human EGF (Sigma) was used as a positive control. Cells were then washed with PBS for 3 times and collected.
Whole fly head or cells lysates were prepared using a RIPA buffer containing 0.3% SDS, 50 mM Tris-HCl, pH 7.4, 0.5% NP-40, 1% sodium deoxycholate, 150 mM NaCl, 5 mM EDTA, 1 tablet per 50 ml complete protease inhibitor cocktail (Roche Diagnostics). Lysates were diluted in an SDS sample buffer and separated on 10-20% Tris-Tricine gels (Invitrogen), and transferred to nitrocellulose membranes (Invitrogen). The membranes were boiled in PBS for 3 min, blocked with 5% non-fat dry milk and blotted with a first antibody. First antibodies used herein included mouse anti-Aβ42 (6E10, Covance Research Products), mouse anti-dEGFR (Abcam), rabbit anti-hEGFR (Cell Signaling), mouse anti-hEGFR-p (Cell Signaling) and rabbit anti-Actin (Sigma). Data were analyzed with the ImageJ software (National Institutes of Health).

[4] = EGFR inhibitor 0.01, 0.1, 1, 10 μg/ml, fed 4 hours each day for 7 days, 10-day-old Aβ42-expressing males

Compound | Rescue of memory loss in Morris water maze [2] | Aβ42-induced memory loss (immediate memory) [1, 4] | Level of p-EGFR or activated EGFR after Aβ42 application [3] | other results
CC12CC3CC(C)(C1)CC(N)(C3)C2 [memantine] | unable to improve the memory-loss phenotype | – | – | Aβ42-induced memory loss (immediate memory) ([1]; memantine 20 μg/ml, fed 4 hours each day for 7 consecutive days, memory at day 10 post-eclosion, male flies): capable of preventing the memory loss; Rescue of memory loss in Morris water maze ([2]; listed as Mem): No improvement in memory; Rescue of memory loss in Morris water maze ([2]; listed as momentine): had no effect
C#Cc1cccc(Nc2ncnc3cc(OCCOC)c(OCCOC)cc23)c1 [Er, N-(3-ethynylphenyl)-6,7-bis(2-methoxyethoxy)quinazolin-4-amine] | – | prevented the memory loss | – | –
monomeric Aβ42 preparation: Aβ42 peptide preparation abundant in monomers | – | – | opposite effect | –
Aβ42 from oligomeric preparation: Synthetic and recombinant wild type Aβ42 (AnaSpec) incubated at 4° C. for 24 h to form oligomers | – | – | significantly elevated | Expression levels of EGFRs after Aβ42 application ([3]; 25 μg/ml Aβ42 from oligomeric preparation): not affected
COc1cc2ncnc(Nc3ccc(F)c(Cl)c3)c2cc1OCCCN1CCOCC1 [Ge, N-(3-chloro-4-fluoro-phenyl)-7-methoxy-6-(3-morpholin-4-ylpropoxy)quinazolin-4-amine] | sufficient to rescue the memory loss; also recorded: rescuing effects were observed | prevented the memory loss | – | Effect of two-month drug feeding on memory loss ([2]; drug feeding from 6- to 8-month-old): produced a positive effect
